Assay results taken from patent publication US8338480B2, “Combination treatment of metabolic disorders” (Wellstat Therapeutics Corporation, priority 2006, dated 2012).
Where a name gives a salt, the structure may show the parent alone. Marks after values point to notes of the source that are not given here.

System: db/db mice
Assay: Serum glucose and triglycerides in db/db mice treated for 4 weeks (Example 2)
Type: in vivo
Details: for Serum Glucose Mean / Serum Triglycerides Mean: 4 weeks oral gavage once per day
Method: Male db/db mice have a defect in the receptor for the appetite-regulating protein leptin and consequently develop hyperphagia, obesity, insulin resistance, hyperglycemia, hypertriglyceridemia. Male db/db mice are an accepted animal model for Type II diabetes. The effect of a range of single daily doses of orally administered Compound BI was assessed in this model, and the efficacy of rosiglitazone alone and in combination with Compound BI was also examined.
Male C57BL/Ksola db/db mice (“db/db mice”) were obtained from Harlan (Indianapolis, Ind.) and allowed to acclimate for a minimum of one week. […] Male C57BL/6 mice of the same age were used as lean nondiabetic controls.
Body weights and blood glucose levels were measured and animals were sorted groups of 6-7 mice with equivalent mean body weights in each group. […].
• 1. Lean Control (no treatment) • 2. Vehicle • 3. Compound BI 30 mg/kg/day • 4. Compound BI 100 mg/kg/day • 5. Compound BI 150 mg/kg/day • 6. Rosiglitazone 3 mg/kg • 7. Rosiglitazone 3 mg/kg+Compound BI 30 mg/kg • 8. Rosiglitazone 3 mg/kg+Compound BI 100 mg/kg • 9. Rosiglitazone 20 mg/kg • 10. Rosiglitazone 20 mg/kg+Compound BI 30 mg/kg • 11. Rosiglitazone 20 mg/kg+Compound BI 100 mg/kg
Drug preparation: Compound BI was suspended in a vehicle comprising 1% aqueous hydroxypropylmethylcellulose, using a tissue homogenizer to minimize particle size and maximize uniformity of the suspension. Rosiglitazone was suspended in the same vehicle. Drug concentrations in the dosing suspension for each treatment group were adjusted according to body weights so that a constant volume of 0.4 ml provided appropropriate drug doses in all groups.
Drug Administration: Drugs were administered orally by gavage once per day for 28 days.
Blood sampling: For serum chemistry analysis, nonfasting blood samples (200 microliters) were obtained via the retro-orbital sinus and collected in serum separator tubes at 11 AM on days 14 and 28 after initiation of drug administration.

For `Cc1cccc(C)c1COc1cccc(C(=O)CCC(=O)O)c1` [Compound BI, 4-(3-(2,6-Dimethylbenzyloxy)phenyl)-4-oxobutyric acid], the “Serum Glucose Mean” value (Compound BI 30 mg/kg) was 657.8 mg/dL, the “Serum Triglycerides Mean” value (Compound BI 30 mg/kg) was 281.2* mg/dL and the “Serum Glucose Mean” value (Compound BI 100 mg/kg) was 330.3* mg/dL. The “Serum Triglycerides Mean” value (Compound BI 100 mg/kg) was 179.1* mg/dL, the “Serum Glucose Mean” value (Compound BI 150 mg/kg) was 271.7* mg/dL and the “Serum Triglycerides Mean” value (Compound BI 150 mg/kg) was 177.7* mg/dL. The “hyperglycemia, hypertriglyceridemia and free fatty acid levels (in words)” value (combination: rosiglitazone 3 mg/kg/day + Compound BI 30 mg/kg/day) was “dose-dependent attenuation of hyperglycemia, hypertriglyceridemia and free fatty acid levels” and the “serum glucose (in words)” value (oral once per day for 28 days) was “dose dependent reduction of serum glucose”.

`CN(CCOc1ccc(CC2SC(=O)NC2=O)cc1)c1ccccn1` (stereo not drawn) [RSG, rosiglitazone maleate, reference compound] was tested, and the “Serum Glucose Mean” value (RSG 3 mg/kg) was 382.8 mg/dL, the “Serum Triglycerides Mean” value (RSG 3 mg/kg) was 99.2* mg/dL and the “Serum Glucose Mean” value (RSG 20 mg/kg) was 344.7 mg/dL. For the same compound, the “Serum Triglycerides Mean” value (RSG 20 mg/kg) was 117.3* mg/dL.
